Where a name gives a salt, the structure may show the parent alone. Read-outs that look alike come from different tables or passages of the source.
Assays:
in vivo [1] = details: mouse, in vivo, ip
Description: (§1) Neurotoxicity of the claimed agents was also assessed in mice (i.p. administration) by the rotorod ataxia test and/or in rats (p.o. administration) by positional sense test and gait stance test. […] The term quantitating the neurotoxicity is the medial neurological toxic dose (TD50), was determined in the above tests.

mice [2] = experiment: in vivo; details: mouse, in vivo, ip
Description: as §1

mice [3] = details: Mus musculus, ip
mice [4] = experiment: Maximal electroshock (MES) model in mice, i.p.;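 further: Electroshock-induced convulsion model serving to demonstrate antiepileptic efficacy against generalized and partial seizures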; type: in vivo; details: Mus musculus, ip, Table 15
rats [5] = experiment: Electrically kindled rat model of epilepsy, p.o.; type: in vivo; details: po, read-out: ED50 (prevented seizures)
Description: The rat electrical kindling model of epilepsy has been known to show efficacy of antiepileptic agents against complex partial seizures that evolve into generalized motor seizures. In these tests, rats were electrically stimulated via corneal electrodes twice daily for approximately 5 days and then once daily for an additional 10 days. Once the seizure criteria, as described by R.J. Racine, et al., Electroenceph. Clin. Neurophysiol. 32: 281-294 (1972), were met, the test substance was administered p.o. to rats, and the rat electrically stimulated, and observed for the presence or absence of a seizure.

rats [6] = experiment: Maximal electroshock (MES) model in rats, p.o.;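 on all read-outs here: rat MES model gauging antiepileptic efficacy versus generalized and partial seizures after oral dosing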; type: in vivo; details: Table 15; for ED50: Rattus norvegicus, po
[7] = test system: mechanically dissociated neonatal rat cerebellum; experiment: Enhancement of cell survival in cultures of neonatal rat cerebellum (no NMDA); type: cell-based; details: 24 hours after addition, percentage of the number of control cells on the fourth day
Description: The cerebellum was aseptically dissociated from 6 or 7-day old rat pups and placed in a 15ml sterile plastic conical tube containing 3ml of Dulbecco's modified Eagle's medium (DMEM) with a high glucose concentration ([…]) and 2mM (v/v) L-glutamine and an antibiotic antimitotic mixture. The cerebella were then dissociated after 20-25 passages through a sterile 13 gauge, 10cm long stainless steel needle attached to a 5ml syringe with an inserted 45 micrometer pore nylon sieve. The dissociated cells were centrifuged at 200g for 5 minutes. […] Cell viability was determined by the tryptan blue exclusion test.
Cells were plated at a density of 200/mm^2 on poly-L-lysine coated surfaces. Poly-L-lysine coated glass coverslips were prepared at least one hour in advance of plating by immersing sterile coverslips in sterile distilled water solution containing 15 microgram/ml poly-L-lysine, and washing in sterile water just prior to use. […] After three days in culture, the media was replaced with media containing the desired test compound. Each test compound was tested in duplicate. Toxic-dose response was determined for each compound.
Cell cultures were grown as described above but in the absence of NMDA and after 3 days a dose of test compound was added. Cell survival was monitored as described above.

in vivo [8] = details: rat, in vivo, po
Description: as §1

rats [9] = experiment: Neurotoxicity in rats (positional sense test and gait stance test), p.o.; details: rats, p.o.; Table 16
Description: as §1

[10] = test system: mechanically dissociated neonatal rat cerebellum; experiment: Reversal of NMDA induced cell death in cultures of neonatal rat cerebellum; type: cell-based; details: for SURVIVING CELL IN CULTURE: relative to control (100%); for PERCENT PROTECTION: Cell Survival minus the NMDA effect; for EFFECTIVE PROTECTION: X x 100/70
Description: The cerebellum was aseptically dissociated from 6 or 7-day old rat pups and placed in a 15ml sterile plastic conical tube containing 3ml of Dulbecco's modified Eagle's medium (DMEM) with a high glucose concentration ([…]) and 2mM (v/v) L-glutamine and an antibiotic antimitotic mixture. The cerebella were then dissociated after 20-25 passages through a sterile 13 gauge, 10cm long stainless steel needle attached to a 5ml syringe with an inserted 45 micrometer pore nylon sieve. The dissociated cells were centrifuged at 200g for 5 minutes. The supernatant was discarded and the cells resuspended in medium enriched with 15% (v/v) heat inactivated fetal calf serum. Cell viability was determined by the tryptan blue exclusion test.
Cells were plated at a density of 200/mm^2 on poly-L-lysine coated surfaces. Poly-L-lysine coated glass coverslips were prepared at least one hour in advance of plating by immersing sterile coverslips in sterile distilled water solution containing 15 microgram/ml poly-L-lysine, and washing in sterile water just prior to use. The plated cells were covered with enriched medium and incubated at 37°C in an atmosphere of 5% CO2 in air and 97% humidity. After three days in culture, the media was replaced with media containing the desired test compound. Each test compound was tested in duplicate. Toxic-dose response was determined for each compound.
Four groups were run in each set of experiments; • I. Control, consisting of enriched media alone, • II. N-methyl-D-aspartate (NMDA, 1mM for 3 hours) as the cytotoxic challenge, • III. Test compound plus NMDA, and • IV. Positive control, spermine(0.01 micromoles) plus NMDA.
Nerve cell survival was evaluated by phase contrast microscopy and tryptan blue staining after 24 hours.
Surviving cells in culture are measured relative to control (100%), as described above. Percent protection is the Cell Survival for the test compound minus the NMDA effect. Thus, maximal protection is 100% minus 30% NMDA effect i.e. […]. The Effective Protection was calculated as the percent of the Percent Protection (X) divided by the maximal protection value (e.g. X x 100/70).

Male mongolian gerbils = experiment: Global brain ischemia in gerbils (CA1 pyramidal neurons); type: in vivo; details: 3 injections, fraction of hippocampi protected from ischemia, 14 days post-ischemia
Description: Each artery was clamped for 5 minutes with aneurysm clips to produce global brain ischemia. The anesthesia was discontinued upon clamping. After 5 minutes the clamps were removed and the wound closed with skin clips.
For treatment, the test compound or vehicle were injected intra-peritoneally (ip) in a volume of 50 microliters of solvent per 10g body weight. The first injection was given two minutes after clamp removal, and thereafter daily for the next 2 post-operative days (total of 3 injections).
Seven groups each of 4-8 animals were compared: • I. Control; (sham- or unoperated and saline treated), • II. Vehicle treated, unoperated (when solvent is other than saline), • III. Ischemia - untreated or saline treated), • IV. Ischemia - vehicle treated (when solvent is other than saline), • V. Ischemia - Test compound treated, one sub-group per concentration tested, • VI. Ischemia and pentobarbital (40 mg/kg) as positive control).
Analysis of neuronal damage was performed 14 days post-ischemia by counting pyramidal neurons throughout the CA1 layer of the anterior hippocampus in […] thick (paraffin) coronal brain sections stained with hematoxylin and erosin.
Percent Protection values represent the fraction of hippocampi protected from ischemia in a group of animals treated with the stated dose of compound.

rats [11] = details: Rattus norvegicus, po, read-out: RATS scMet ED50
male ICR albino mice = experiment: Hypobaric hypoxia survival time in mice; type: in vivo
Description: Dessicator B was disconnected and allowed to equilibrate with room air whilst dessicator A was evacuated to a pressure of 100mmHg. […] The survival time from the moment of induction of hypoxia to the time of cessation of respiration was recorded for each mouse for a maximum of 15 minutes after which time room air was reintroduced to dessicator B. Survivors were monitored for signs of lethargy or vitality.
Effect of drug treatment was assessed as the percent of the survival time of the drug treated group with respect to the saline injected or vehicle injected control group. Control groups were run twice, before and after each experimental group and consisted of 12-16 mice in groups of 4 mice. Each experimental group always consisted of 4 mice to ensure a constant residual volume of oxygen in all tests. The effect of each dose of test drug was determined in duplicate i.e. two groups of 4 mice.
All drugs were administered intra-peritoneally at the dose indicated one hour prior to exposure to hypoxia.

[12] = read-out: MICE scMet ED50, mice, i.p., Table 16
[13] = 0.005 µM + NMDA 1mM for 3 hours
[14] = 0.010 µM + NMDA 1mM for 3 hours
[15] = 0.100 µM + NMDA 1mM for 3 hours
[16] = rats, p.o., read-out: RATS MES 50
[17] = 1.000 µM + NMDA 1mM for 3 hours

Compound | TD50 (in vivo [1]; MICE TD50) | MICE TD50 (mice [2]) | ED50 (mice [3]; [12]) | ED50 (mice [4]) | TD50 (in vivo [8]) | RATS TD50 (rats [9]) | SURVIVING CELL IN CULTURE [10, 13] | PERCENT PROTECTION ([10]; 0.005 µM + NMDA) | EFFECTIVE PROTECTION ([10]; 0.005 µM + NMDA) | SURVIVING CELL IN CULTURE [10, 14] | PERCENT PROTECTION ([10]; 0.010 µM + NMDA) | EFFECTIVE PROTECTION ([10]; 0.010 µM + NMDA) | PERCENT PROTECTION (Male mongolian gerbils; 0.1 mg/kg ip) | PERCENT PROTECTION (Male mongolian gerbils; 1.0 mg/kg ip) | PERCENT PROTECTION (Male mongolian gerbils; 10.0 mg/kg ip) | ED50 (rats [11]) | ED50 (rats [6]; [16]) | other results
CC(=O)NC1CCc2ccccc21 (racemic) [Example 17, (rac)-N-Acetyl-1-aminoindan] | 90 mg/kg | 90 mg/kg | 71.5 mg/kg | 33 mg/kg | – | – | – | – | – | – | – | – | – | – | – | – | – | ED50 (rats [5]): < 75 mg/kg
NC(=O)CN[C@H]1CCc2ccccc21 [Example 2, (S)-N-(2-Acetamido)-1-aminoindan.HCl] | – | – | > 150 mg/kg | 39 mg/kg | > 500 mg/kg | >500 mg/kg | 56% | 26% | 37% | 51% | 21% | 30% | 0% | 50.0% | 37.5% | > 250 mg/kg | – | RATS MES 50 (rats [6]; rats, p.o.): 21 mg/kg; TD50 (in vivo [1]; MICE TD50, mice, Table 15): 137 mg/kg; TD50 (in vivo [1]; MICE TD50, mice, Table 16): 137 mg/kg; % ENHANCED SURVIVAL ([7]; 0.005 µM): 140%; % ENHANCED SURVIVAL ([7]; 0.01 µM): 125%; SURVIVING CELL IN CULTURE [10, 15]: 33%; PERCENT PROTECTION ([10]; 0.100 µM + NMDA): 3%; EFFECTIVE PROTECTION ([10]; 0.100 µM + NMDA): 4%
CC(=O)N[C@H]1CCc2ccccc21 [Example 19, (S)-N-Acetyl-1-aminoindan] | 61 mg/kg | 61 mg/kg | 86 mg/kg | 40 mg/kg | > 500 mg/kg | >500 mg/kg | 30% | 0% | 0% | 42% | 12% | 17% | 25.0% | 0% | 37.5% | > 250 mg/kg | 24 mg/kg | % ENHANCED SURVIVAL ([7]; 0.005 µM): 120%; SURVIVING CELL IN CULTURE ([10]; 0.001 µM + NMDA 1mM for 3 hours): 80%; PERCENT PROTECTION ([10]; 0.001 µM + NMDA): 50%; EFFECTIVE PROTECTION ([10]; 0.001 µM + NMDA): 71%; SURVIVING CELL IN CULTURE [10, 17]: 15%; PERCENT PROTECTION ([10]; 1.000 µM + NMDA): -15%; ED50 (rats [5]): > 50 mg/kg
COc1ccc2c(c1OC)CC[C@H]2NC(C)=O [Example 21, (R)-4,5-Dimethoxy-N-acetyl-1-aminoindan] | 137 mg/kg | 137 mg/kg | 150 mg/kg | 40 mg/kg | > 500 mg/kg | >500 mg/kg | – | – | – | – | – | – | – | – | – | > 250 mg/kg | 21 mg/kg | –
CC(=O)N[C@@H]1CCc2ccc(F)cc21 [Example 23, (R)-6-Fluoro-N-acetyl-1-aminoindan] | 155 mg/kg | 155 mg/kg | 155 mg/kg | 65 mg/kg | > 500 mg/kg | >500 mg/kg | – | – | – | – | – | – | – | – | – | > 250 mg/kg | 25 mg/kg | –
C#CCN[C@H]1CCc2ccccc21.Cl [G, (S)-N-propargyl-1-aminoindan HCl salt] | – | – | – | 57 mg/kg | – | – | – | – | – | – | – | – | – | – | – | > 250 mg/kg | – | ED50 (rats [6]; read-out: RATS MES 50, rats, p.o.): 57 mg/kg; ED50 (mice [3]; read-out: MICE scMet ED50): > 250 mg/kg
N[C@@H]1CCc2ccc(F)cc21 [J, (R)-6-fluoro-1-aminoindan] | 78 mg/kg | 78 mg/kg | – | 65 mg/kg | > 50 mg/kg | >50 mg/kg | 108% | 78% | 111% | 79% | 49% | 70% | 27.5% | 25.0% | 25.0% | > 100 mg/kg | < 50 mg/kg | SURVIVING CELL IN CULTURE [10, 15]: 62%; PERCENT PROTECTION ([10]; 0.100 µM + NMDA): 32%; EFFECTIVE PROTECTION ([10]; 0.100 µM + NMDA): 46%; SURVIVING CELL IN CULTURE [10, 17]: 53%; PERCENT PROTECTION ([10]; 1.000 µM + NMDA): 23%; EFFECTIVE PROTECTION ([10]; 1.000 µM + NMDA): 33%; SURVIVING CELL IN CULTURE ([10]; 5.000 µM + NMDA 1mM for 3 hours): 60%; PERCENT PROTECTION ([10]; 5.000 µM + NMDA): 30%; EFFECTIVE PROTECTION ([10]; 5.000 µM + NMDA): 43%; PROTECTION % OF RESPECTIVE CONTROL (male ICR albino mice; 50 mg/kg ip one hour prior to hypoxia): 305±185 % OF RESPECTIVE CONTROL; PROTECTION % OF RESPECTIVE CONTROL (male ICR albino mice; 100 mg/kg ip one hour prior to hypoxia): 241±56 % OF RESPECTIVE CONTROL

— patent EP0738149B1 (priority 1994, dated 1995)
